Like-named read-outs stand apart in the source and are kept apart here.
Assays:
integrins = details: cited from earlier work
[1] = tested on: human lung fibroblasts (HFL-1 cells); experiment: Antisense transfection: thrombin-induced proliferation of HFL-1 cells; type: cell-based; details: thrombin-treated cells
Protocol: Thrombin stimulates proliferation of human lung fibroblasts. Thrombin-treated human lung fibroblasts (HFL-1 cells) proliferated 53% in response to thrombin. 24 hours before treatment with thrombin, HFL-1 cells were treated with an LID complex comprising [K]16-peptide 6, lipofectin and a 20-mer antisense oligonucleotide directed against the thrombin receptor PAR-1 in the optimal ratio and mixing order prepared as described in the Materials and Methods section and the Examples above. The antisense oligonucleotide-containing complex was in contact with the cells for 4 hours. 24 hours after the start of the treatment with the complex, treatment with thrombin was carried out.

Substance | integrin specificity (integrins) | integrin specificity (integrins; listed as peptide 5) | proliferation in response to thrombin [1] [%]
GACDCRGDCFCA [Peptide 5] | Peptide 5 (αv) | has high affinity for integrin αv but is not αv-specific | –
GACRGDMFGCA [Peptide 1] | has affinity for α5 and αv integrins but is non-specific | – | –
GACRRETAWACG [Peptide 6] | α5β1-specific | – | –
thrombin | – | – | 53
